For one series, the system named is CT-26 colon cancer cells. Briefly: CT-26 colon cancer in vivo assay for anticancer activity. Details: species or system Balb/c mice. The protocol:
CT-26 colon cancer cells (5×10^5 in serum-free medium) were injected subcutaneously into the right flank of Balb/c mice. Animals were treated with the indicated oxaliplatin-releasing drugs at concentrations equimolar to 9 mg/kg oxaliplatin (i.v.; KP2156, KP2299 (compound 12), and KP2541 (compound 22) were dissolved in 0.9% NaCl solution, KP2260 (compound 11) was dissolved in 10% propylene glycol/0.9% NaCl and oxaliplatin was dissolved in 5% glucose solution according to the clinical protocol) twice a week (Mondays and Thursdays). Also in case of KP2552 (mixture of compounds 23 and 24, with the 4-methyl-1,2-cyclohexanediamine moiety) the solvent and application scheme of oxaliplatin was used. In case of cisplatin-releasing prodrugs KP2372 (compound 8) and KP2540 (compound 30), a dose equimolar to 3 mg/kg cisplatin was applied twice a week. For the carboplatin derivative KP2551 (compound 20) a dose equimolar to 12 mg/kg carboplatin was applied. The complexes were dissolved in 0.9% NaCl, while for the platinum(II) drugs 5% glucose solution was used according to the clinical protocol. Animals were controlled for distress development every day and tumor size was assessed regularly by caliper measurement. Tumor volume was calculated using the formula: (length×width^2).

For series [1], the system named is L1210 murine leukemia cells. Briefly: L1210 leukemia in vivo assay (survival). To be noted: L1210 i.p., male DBA/2J×Balb/c SCID F1 mice. Here is the method:
L1210 murine leukemia cells (1×10^5) were injected intraperitoneally in a volume of 0.2 mL into female DBA/2J (cisplatin-releasing drugs) or male DBA/2J×Balb/c SCID F1 mice (oxaliplatin-releasing drugs). Compounds (see FIG. 4; dissolved as described above) were administered intraperitoneally at drug concentrations equimolar to 3 mg/kg cisplatin and 9 mg/kg oxaliplatin, respectively, on day 1, 5, and 9. Toxicity was monitored by daily observation of animals and registration of their body weight. Therapeutic efficacy of the drug candidate was monitored by recording the lengths of survival of experimental mice compared to untreated control animals.

Another series is described as follows: Aqueous solubility. To be noted: compared to KP2260.
The nature of series [2]: RP-HPLC stability studies: hydrolytic stability in buffered aqueous solution at different pH values. Type of series: physicochemical. To be noted: 0.5 mM, 20° C.; for stability (decrease of the compound peak area): over 24 h; for hydrolysis: 24 hours. The protocol:
The stability of the compounds of the invention in aqueous solutions at different pH values was evaluated by incubation of compound 12 (KP2299) in different buffers and subsequent monitoring of the decrease of the compound peak area with the UV/VIS detector of a RP-HPLC system at 250 nm. Therefore, compound 12 was dissolved at a concentration of 0.5 mM in either 100 mM phosphate buffer pH=7.4, 100 mM sodium acetate buffer pH=6.3, 100 mM sodium acetate buffer pH=5.3 or 100 mM sodium acetate buffer pH=4.3 and incubated at 20° C. for 24 hours. All the measurements were carried out on an Ultimate 3000 RS system (Thermo Scientific, Waltham, Mass., USA) controlled by Chromeleon 7.2 SR4 software using an Acquity BEH C18 reversed phase column (50×3.0 mm, 1.7 μm particle size) from Waters (Milford, USA). Following conditions were used for the runs: flow rate 0.6 mL/min, sampler temperature: 20° C., column oven temperature 25° C., injection volume 10 μL, gradient 5-95% MeOH (and H2O (+0.1% HCOOH)) in 10 min. The compound was first measured directly after the preparation of the compound (after 2-3 min) and thereafter every 60 min. The decrease of the compound was calculated by the compound peak areas relatively to the peak area directly after the preparation of the compound. […] At pH=6.3 the hydrolysis is below 0.5%/h, whereas at pH=7.4 the hydrolysis is quite fast with ˜2.6%/h (see FIG. 5). Corresponding results can be obtained when the further compounds of the invention are tested.

Another series has as its system B16 melanoma cells. Briefly: B16 melanoma in vivo assay for anticancer activity. To be noted: male C57/B6JRj mice, i.v. twice a week, equimolar to 9 mg/kg oxaliplatin. Here is the method:
B16 melanoma cells (1×10^5 in serum-free medium) were injected subcutaneously into the right flank of male C57/B6JRj mice. Animals were treated with KP2299 at concentrations equimolar to 9 mg/kg oxaliplatin (i.v.; dissolved in 0.9% NaCl solution) twice a week. Oxaliplatin was dissolved in 5% glucose solution according to the clinical protocol. Animals were controlled for distress development every day and tumor size was assessed regularly by caliper measurement. Tumor volume was calculated using the formula: (length×width^2).

Setting [3] is: Balb/c mice, twice a week, dose equimolar to 3 mg/kg cisplatin.
The mark [4] stands for this setting: male Balb/c mice, dose equimolar to 12 mg/kg carboplatin.
Where [5] appears, read: Balb/c mice, i.v. twice a week, equimolar to 9 mg/kg oxaliplatin.

“Also recorded” adds a separate entry of the source.

As for `CC(=O)[O][Pt]([Cl])([Cl])[O]C(=O)NCCN1C(=O)C=CC1=O.N.N` [KP2372, (OC-6-44)-Acetatodiamminedichlorido[2-(2,5-dioxo-2,5-dihydro-1H-pyrrol-1-yl)ethylcarbamato]platinum(IV)], the “anticancer activity against CT-26 tumors (tumor growth)” value (shortened to “anticancer activity … (tumor growth)”) in the series with CT-26 colon cancer cells (setting [3]) is “only marginally active; also recorded: widely inactive”.

For `CC(=O)[O][Pt]([Cl])([Cl])[O]C(=O)NCCCCCN1C(=O)C=CC1=O.N.N` [KP2540, (OC-6-44)-Acetatodiamminedichlorido[5-(2,5-dioxo-2,5-dihydro-1H-pyrrol-1-yl)pentylcarbamato]platinum(IV)], the “anticancer activity … (tumor growth)” value in the series on CT-26 colon cancer cells (setting [3]) was “only marginally active; also recorded: widely inactive”.

Take `CC(=O)[O][Pt]1([NH2])([NH2])([O]C(=O)NCCN2C(=O)C=CC2=O)[O]C(=O)C2(CCC2)C(=O)[O]1` [KP2551, (OC-6-34)-Acetatodiamminecyclobutane-1,1-dicarboxylato[2-(2,5-dioxo-2,5-dihydro-1H-pyrrol-1-yl)ethylcarbamato]platinum(IV)]: the “anticancer activity … (tumor growth)” value in the series with CT-26 colon cancer cells (setting [4]) is on record as “distinctly more active than all other tested compounds; also recorded: very strong anticancer activity”.

On to `[NH2][Pt]1([NH2])[O]C(=O)C2(CCC2)C(=O)[O]1` [carboplatin, (SP-4-2)-Diamminecyclobutane-1,1-dicarboxylatoplatinum(II), reference compound], for which, in the series on CT-26 colon cancer cells (setting [4]), the “anticancer activity … (tumor growth)” value is “no impact”.

For the compound `O=C1[O][Pt]2([NH][C@@H]3CCCC[C@H]3[NH]2)[O]C1=O` [oxaliplatin, reference compound], in series [1] (i.p. day 1, 5, 9, 9 mg/kg oxaliplatin), the “treated animals with life prolongation” value was around 50%.

For the compound “(OC-6-34)-Acetato[(1R,2R)-cyclohexane-1,2-diamine]oxalato[2-(2,5-dioxo-2,5-dihydro-1H-pyrrol-1-yl)ethylcarbamato]platinum(IV) [KP2299]”, the aqueous solubility result in the series “Aqueous solubility” is listed as “highly increased”. The “anticancer activity … (tumor growth)” value with CT-26 colon cancer cells (setting [5]) is reported as “distinctly more active than all other tested compounds; also recorded: distinctly higher anticancer activity; also recorded: exceptionally increased anticancer activity”. Besides, the complete remission in the series with CT-26 colon cancer cells (CT-26, female mice, equimolar to 9 mg/kg oxaliplatin i.v. twice a week) is 3 out of 4. Further, the “stability (decrease of the compound peak area)” value in series [2] (pH=4.3, 100 mM sodium acetate buffer) is “stable”; in series [2] (pH=5.3, 100 mM sodium acetate buffer), “stable”. For the same compound, the hydrolysis result in series [2] (pH=6.3, 100 mM sodium acetate buffer) is “below 0.5 %/h”; in series [2] (pH=7.4, 100 mM phosphate buffer), around 2.6 %/h. In addition, the “anticancer activity against B16 tumors” value in the series on B16 melanoma cells is given as “exceptionally increased anticancer activity”. In addition, the “anti-leukemic activity (survival)” value in series [1] (i.p. day 1, 5, 9, equimolar to 9 mg/kg oxaliplatin) was “distinct anti-leukemic activity”.

Consider “(OC-6-34)-[(1R,2R)-Cyclohexane-1,2-diamine]methoxidooxalato[2-(2,5-dioxo-2,5-dihydro-1H-pyrrol-1-yl)ethylcarbamato]platinum(IV) [KP2260]”, for which the “anticancer activity … (tumor growth)” value in the series on CT-26 colon cancer cells (setting [5]) was “far less or at least later active”.

As to “(OC-6-44)-Acetato[(1R,2R)-cyclohexane-1,2-diamine]oxalato[4-(2,5-dioxo-2,5-dihydro-1H-pyrrol-1-yl)butanoato]platinum(IV) [KP2541]”, the “anticancer activity … (tumor growth)” value in the series with CT-26 colon cancer cells (setting [5]) is “far less or at least later active”.

Values taken from patent US11572379B2, “Monomaleimide-functionalized platinum compounds for cancer therapy” (Medizinische Universität Wien, priority 2015, dated 2023).
